In US7728128B2, “Dibenzo[c,h][1,5]naphthyridines and their use as DNA probes” (Institut National de la Sante et de la Recherche Medicate …, priority 2006, dated 2010):

Tested on: CT DNA
Test: viscometry (hydrodynamic studies) of CT DNA solutions
Format: binding, calf
Conditions: CT DNA 0.5 mM, drug 0.1 mM (0.2 dye/bp ratio)
Procedure: Calf thymus (CT) DNA was dissolved in 50 mM Na-phosphate buffer, pH 7.2, to a concentration of 0.1 or 0.5 mM relative to base pairs as described in the legend for FIGS. 3A and B. DNA solution was allowed to run through a custom-made capillary viscometer and the time necessary for the meniscus to pass a certain distance was measured using a stopwatch. All experiments were performed at 23° C. Viscosity values were calculated using the equation: η=(t−t0)/t0, where t is the flow time of DNA solution (with or without dye), and t0 is the flow time of Na-phosphate buffer alone. For each control and DNA solutions with dyes flow times were measured three to five times. Viscosity of DNA solutions with dyes were calculated as (η/η0)^1/3, where η0 and η are relative viscosities of the CT DNA solution in the absence and presence of the dye, respectively. This calculation stems from the relationship which exists between the relative solution viscosity and the relative contour length (L/L0): L/L0=(η/η0)^1/3, where L stands for the apparent molecular length (Muller, W. et al., 1968, J Mol Biol, 35, 251-290). Average viscosity values and standard error of the mean (SEM) were determined using (η/η0)^1/3 values calculated for each time flow measurement.
DNA-binding dyes interact with dsDNA by intercalation or external binding, or both. External binding most often involves the minor groove of DNA (Kopka et al.; Pjura, P. E., et al., 1987, J Mol Biol, 197, 257-271). Intercalation occurs when a ligand inserts itself between the opposite strands of DNA. In order to determine the mechanism of compound I binding to dsDNA, the inventors performed hydrodynamic studies. This approach is based on the observation that intercalating molecules increase the length of DNA fragments and, consequently, enhance the viscosity of DNA solutions (Muller W. et al.; Suh, D. et al., 1995, Bioorg Med Chem, 3, 723-728). For this experiment, compound I has been compared to the known DNA intercalator ethidium bromide and to the external minor groove binder Hoechst 33258. CT DNA at 0.5 mM was mixed with drugs at 0.1 mM concentration (0.2 dye/bp ratio) and used for viscometry measurements.
The inventors then wondered whether the increase in viscosity is equally matched by the increase in fluorescence intensity. To answer this question, CT DNA at 0.1 mM (bp) was mixed with increasing amounts of compound I and viscosity measurements were performed as above. The viscosity of the DNA/compound I solutions increased up to a dye/bp ratio 1 (FIG. 3B). To correlate the increase in viscosity with fluorescence, the inventors measured fluorescence intensities at 484 nm of the compound I/DNA solutions used for the viscosity measurements.

Structure (SMILES): CN1CCN(c2ccc3[nH]c(-c4ccc5[nH]c(-c6ccc(O)cc6)nc5c4)nc3c2)CC1 [Hoechst 33258, reference compound]
- effect on viscosity of DNA solution: decrease slightly
